Patent US8613914B2, “Peptidomimetic sulfamide compounds and antiviral uses thereof” (Novartis AG, priority 2009, dated 2013)

These molecules were tested against HCV NS3-4A serine protease (full-length NS3-4A protein) (Hepatitis C virus genotype 1a (isolate 1) (HCV), UniProt P26664) (assay: HCV NS3-4A protease assay). Settings: strain HCV-1, fluorogenic peptide substrate, read-out: Protease assay Ex. 12 IC50.
Format: biochemical, HCV genotype 1a
Description: The inhibitory activity of certain compounds of Table A against HCV NS3-4A serine protease is determined in a homogenous assay using the full-length NS3-4A protein (genotype 1a, strain HCV-1) and a commercially available internally-quenched fluorogenic peptide substrate as described by Taliani, M., et al. 1996 Anal. Biochem. 240:60-67, which is incorporated by reference in its entirety.

Chain of HCV NS3-4A serine protease (full-length NS3-4A protein) (P26664 1027-1657): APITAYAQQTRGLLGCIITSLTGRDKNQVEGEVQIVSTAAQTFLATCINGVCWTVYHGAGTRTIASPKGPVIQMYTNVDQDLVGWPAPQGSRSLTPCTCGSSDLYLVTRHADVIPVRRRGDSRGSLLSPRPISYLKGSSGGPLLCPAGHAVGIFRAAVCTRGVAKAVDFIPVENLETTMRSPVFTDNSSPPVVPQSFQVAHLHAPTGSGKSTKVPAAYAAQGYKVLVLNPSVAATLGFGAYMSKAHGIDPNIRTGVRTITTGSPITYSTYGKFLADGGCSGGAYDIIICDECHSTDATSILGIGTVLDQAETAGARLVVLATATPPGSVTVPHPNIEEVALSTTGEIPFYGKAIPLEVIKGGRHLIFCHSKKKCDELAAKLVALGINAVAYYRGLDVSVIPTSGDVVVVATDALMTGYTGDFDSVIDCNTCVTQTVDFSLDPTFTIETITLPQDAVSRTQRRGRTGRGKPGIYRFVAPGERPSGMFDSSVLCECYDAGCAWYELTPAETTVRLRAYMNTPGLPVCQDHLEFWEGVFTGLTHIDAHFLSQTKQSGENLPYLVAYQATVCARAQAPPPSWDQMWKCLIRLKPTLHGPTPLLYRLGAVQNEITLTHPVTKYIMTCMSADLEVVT
Chain of HCV NS3-4A serine protease (full-length NS3-4A protein) (P26664 1658-1711 partner): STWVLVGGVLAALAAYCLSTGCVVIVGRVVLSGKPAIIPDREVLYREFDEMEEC

| Compound | IC50 [nM] |
| --- | --- |
| C=C[C@@H]1C[C@]1(NC(=O)[C@@H]1C[C@@]2(CN1C(=O)[C@@H](NC(=O)[C@@H](NC(=O)[C@@H]1CCCN1CC)C1(C)CCCCC1)C1(C)CCCCC1)C(C)(C)C21CCC1)C(=O)NS(=O)(=O)N(CC)CC [Compound 159, (5R,8S)-N-[(1R,2S)-1-{[(diethylamino)sulfonyl]carbamoyl}-2-vinylcyclopropyl]-7-[(2S)-2-{[(2S)-2-({[(2S)-1-ethylpyrrolidin-2-yl]carbonyl}amino)-2-(1-methylcyclohexyl)acetyl]amino}-2-(1-methylcyclohexyl)acetyl]-10,10-dimethyl-7-azadispiro[3.0.4.1]decane-8-carboxamide] | 11 |
| C=C[C@@H]1C[C@]1(NC(=O)[C@@H]1C[C@@]2(CN1C(=O)[C@@H](NC(=O)[C@@H](NC(=O)[C@@H]1CCCN(CC)C1)C(C)(C)C)C(C)(C)C)C(C)(C)C21CCC1)C(=O)NS(=O)(=O)N1CCOCC1 [Compound 7, (5R,8S)-7-[(2S)-2-{[(2S)-2-({[(3R)-1-ethylpiperidin-3-yl]carbonyl}amino)-3,3-dimethylbutanoyl]amino}-3,3-dimethylbutanoyl]-10,10-dimethyl-N-{(1R,2S)-1-[(morpholin-4-ylsulfonyl)carbamoyl]-2-vinylcyclopropyl}-7-azadispiro[3.0.4.1]decane-8-carboxamide] | 450 |
| C=C[C@@H]1C[C@]1(NC(=O)[C@@H]1C[C@@]2(CN1C(=O)[C@@H](NC(=O)[C@@H](NC(=O)[C@H]1CCCCN1CC)C1CCCCC1)C(C)(C)C)C(C)(C)C21CCC1)C(=O)NS(=O)(=O)N1CCCC1 [Compound 36, (5R,8S)-7-[(2S)-2-{[(2S)-2-cyclohexyl-2-({[(2R)-1-ethylpiperidin-2-yl]carbonyl}amino)acetyl]amino}-3,3-dimethylbutanoyl]-10,10-dimethyl-N-{(1R,2S)-1-[(pyrrolidin-1-ylsulfonyl)carbamoyl]-2-vinylcyclopropyl}-7-azadispiro[3.0.4.1]decane-8-carboxamide] | 3.5 |
| C=C[C@@H]1C[C@]1(NC(=O)[C@@H]1C[C@@]2(CN1C(=O)[C@@H](NC(=O)[C@@H](NC(=O)[C@H]1CCCN1C(C)C)C(C)(C)C)C(C)(C)C)C(C)(C)C21CCC1)C(=O)NS(=O)(=O)N1CCCC1 [Compound 21, (5R,8S)-7-[(2S)-2-{[(2S)-2-({[(2R)-1-isopropylpyrrolidin-2-yl]carbonyl}amino)-3,3-dimethylbutanoyl]amino}-3,3-dimethylbutanoyl]-10,10-dimethyl-N-{(1R,2S)-1-[(pyrrolidin-1-ylsulfonyl)carbamoyl]-2-vinylcyclopropyl}-7-azadispiro[3.0.4.1]decane-8-carboxamide] | 35 |
| C=C[C@@H]1C[C@]1(NC(=O)[C@@H]1C[C@@]2(CN1C(=O)[C@@H](NC(=O)[C@@H](NC(=O)[C@@H]1CCCCN1C(C)C)c1ccccc1)C(C)(C)C)C(C)(C)C21CCC1)C(=O)NS(=O)(=O)N1CCCC1 [Compound 104, (5R,8S)-7-[(2S)-2-{[(2S)-2-({[(2S)-1-isopropylpiperidin-2-yl]carbonyl}amino)-2-phenylacetyl]amino}-3,3-dimethylbutanoyl]-10,10-dimethyl-N-{(1R,2S)-1-[(pyrrolidin-1-ylsulfonyl)carbamoyl]-2-vinylcyclopropyl}-7-azadispiro[3.0.4.1]decane-8-carboxamide] | 15 |
| C=C[C@@H]1C[C@]1(NC(=O)[C@@H]1C[C@@]2(CN1C(=O)[C@@H](NC(=O)[C@@H](NC(=O)[C@@H]1CCCCN1C(C)C)C1CCCCC1)C(C)(C)C)C(C)(C)C21CCC1)C(=O)NS(=O)(=O)N(C)C1CCC1 [Compound 49, (5R,8S)-N-[(1R,2S)-1-({[cyclobutyl(methyl)amino]sulfonyl}carbamoyl)-2-vinylcyclopropyl]-7-[(2S)-2-{[(2S)-2-cyclohexyl-2-({[(2S)-1-isopropylpiperidin-2-yl]carbonyl}amino)acetyl]amino}-3,3-dimethylbutanoyl]-10,10-dimethyl-7-azadispiro[3.0.4.1]decane-8-carboxamide] | 3.3 |
| C=C[C@@H]1C[C@]1(NC(=O)[C@@H]1C[C@@]2(CN1C(=O)[C@@H](NC(=O)[C@@H](NC(=O)[C@@H]1CCCN1C(C)C)C1CCCCC1)C(C)(C)C)C(C)(C)C21CCC1)C(=O)NS(=O)(=O)N1CCCC1 [Compound 15, (5R,8S)-7-[(2S)-2-{[(2S)-2-cyclohexyl-2-({[(2S)-1-isopropylpyrrolidin-2-yl]carbonyl}amino)acetyl]amino}-3,3-dimethylbutanoyl]-10,10-dimethyl-N-{(1R,2S)-1-[(pyrrolidin-1-ylsulfonyl)carbamoyl]-2-vinylcyclopropyl}-7-azadispiro[3.0.4.1]decane-8-carboxamide] | 2 |
| C=C[C@@H]1C[C@]1(NC(=O)[C@@H]1C[C@@]2(CN1C(=O)[C@@H](NC(=O)[C@@H](NC(=O)CN(C)C)C1CCCCC1)C(C)(C)C)C(C)(C)C21CCC1)C(=O)NS(=O)(=O)N1CCCC1 [Compound 200, (5R,8S)-7-{(2S)-2-[(cyclohexyl{[(dimethylamino)acetyl]amino}acetyl)amino]-3,3-dimethylbutanoyl}-10,10-dimethyl-N-{(1R,2S)-1-[(pyrrolidin-1-ylsulfonyl)carbamoyl]-2-vinylcyclopropyl}-7-azadispiro[3.0.4.1]decane-8-carboxamide] | 8 |
| C=C[C@@H]1C[C@]1(NC(=O)[C@@H]1C[C@@]2(CN1C(=O)[C@@H](NC(=O)CC1(CC#N)CCCCC1)C(C)(C)C)C(C)(C)C21CCC1)C(=O)NS(=O)(=O)N1CCCC1 [Compound 61, (5R,8S)-7-[(2S)-2-({[1-(cyanomethyl)cyclohexyl]acetyl}amino)-3,3-dimethylbutanoyl]-10,10-dimethyl-N-{(1R,2S)-1-[(pyrrolidin-1-ylsulfonyl)carbamoyl]-2-vinylcyclopropyl}-7-azadispiro[3.0.4.1]decane-8-carboxamide] | 750 |
| C=C[C@@H]1C[C@]1(NC(=O)[C@@H]1C[C@@]2(CN1C(=O)[C@@H](NC(=O)[C@@H](NC(=O)[C@@H]1CCCN1CC)C1(C)CCCCC1)C1(C)CCOCC1)C(C)(C)C21CCC1)C(=O)NS(=O)(=O)N1CCCC1 [Compound 146, (5R,8S)-7-[(2S)-2-{[(2S)-2-({[(2S)-1-ethylpyrrolidin-2-yl]carbonyl}amino)-2-(1-methylcyclohexyl)acetyl]amino}-2-(4-methyltetrahydro-2H-pyran-4-yl)acetyl]-10,10-dimethyl-N-{(1R,2S)-1-[(pyrrolidin-1-ylsulfonyl)carbamoyl]-2-vinylcyclopropyl}-7-azadispiro[3.0.4.1]decane-8-carboxamide] | 3 |
| C=C[C@@H]1C[C@]1(NC(=O)[C@@H]1C[C@@]2(CN1C(=O)[C@@H](NC(=O)[C@@H](NC(=O)[C@@H]1CCCCN1C(C)C)C1CCCCC1)C1CCOCC1)C(C)(C)C21CCC1)C(=O)NS(=O)(=O)N1CCCC1 [Compound 41, (5R,8S)-7-[(2S)-2-{[(2S)-2-cyclohexyl-2-({[(2S)-1-isopropylpiperidin-2-yl]carbonyl}amino)acetyl]amino}-2-(tetrahydro-2H-pyran-4-yl)acetyl]-10,10-dimethyl-N-{(1R,2S)-1-[(pyrrolidin-1-ylsulfonyl)carbamoyl]-2-vinylcyclopropyl}-7-azadispiro[3.0.4.1]decane-8-carboxamide] | 0.9 |
| C=C[C@@H]1C[C@]1(NC(=O)[C@@H]1C[C@@]2(CN1C(=O)[C@@H](NC(=O)[C@@H](NC(=O)c1cc3ccccc3[nH]1)C1CCCCC1)C(C)(C)C)C(C)(C)C21CCC1)C(=O)NS(=O)(=O)N1CCCC1 [Compound 188, (5R,8S)-7-[(2S)-2-({cyclohexyl[(1H-indol-2-ylcarbonyl)amino]acetyl}amino)-3,3-dimethylbutanoyl]-10,10-dimethyl-N-{(1R,2S)-1-[(pyrrolidin-1-ylsulfonyl)carbamoyl]-2-vinylcyclopropyl}-7-azadispiro[3.0.4.1]decane-8-carboxamide] | 20 |
| C=C[C@@H]1C[C@]1(NC(=O)[C@@H]1C[C@@]2(CN1C(=O)[C@@H](NC(=O)[C@@H](NC(=O)[C@@H]1CCCCN1C(C)C)C1(C)CCCCC1)C1(C)CCOCC1)C(C)(C)C21CCC1)C(=O)NS(=O)(=O)N(CC)CC [Compound 152, (5R,8S)-N-[(1R,2S)-1-{[(diethylamino)sulfonyl]carbamoyl}-2-vinylcyclopropyl]-7-[(2S)-2-{[(2S)-2-({[(2S)-1-isopropylpiperidin-2-yl]carbonyl}amino)-2-(1-methylcyclohexyl)acetyl]amino}-2-(4-methyltetrahydro-2H-pyran-4-yl)acetyl]-10,10-dimethyl-7-azadispiro[3.0.4.1]decane-8-carboxamide] | 1.1 |
| CC[C@@H]1C[C@]1(NC(=O)[C@@H]1C[C@@]2(CN1C(=O)[C@@H](NC(=O)[C@@H](NC(=O)[C@@H]1CCCCN1C(C)C)C1CCCCC1)C(C)(C)C)C(C)(C)C21CCC1)C(=O)NS(=O)(=O)N(CC)CC [Compound 203, (5R,8S)-7-[(2S)-2-{[(2S)-2-cyclohexyl-2-({[(2S)-1-isopropylpiperidin-2-yl]carbonyl}amino)acetyl]amino}-3,3-dimethylbutanoyl]-N-(1-{[(diethylamino)sulfonyl]carbamoyl}-2-ethylcyclopropyl)-10,10-dimethyl-7-azadispiro[3.0.4.1]decane-8-carboxamide] | 8 |
| C=C[C@@H]1C[C@]1(NC(=O)[C@@H]1C[C@@]2(CN1C(=O)[C@@H](NC(=O)[C@@H](NC(=O)c1[nH]c(C)c(C)c1C(C)=O)C(C)(C)C)C(C)(C)C)C(C)(C)C21CCC1)C(=O)NS(=O)(=O)N1CCCC1 [Compound 161, (5R,8S)-7-[(2S)-2-{[(2S)-2-{[(3-acetyl-4,5-dimethyl-1H-pyrrol-2-yl)carbonyl]amino}-3,3-dimethylbutanoyl]amino}-3,3-dimethylbutanoyl]-10,10-dimethyl-N-{(1R,2S)-1-[(pyrrolidin-1-ylsulfonyl)carbamoyl]-2-vinylcyclopropyl}-7-azadispiro[3.0.4.1]decane-8-carboxamide] | 65 |
